Experimental data as given in patent US6878690B2, “Compounds and methods” (PharmAxis Pty Ltd., priority 2000, dated 2005).

Assays:
[1] = test system: myelin basic protein (MBP)-specific T lymphocyte cell lines; assay: Inhibition of T-lymphocyte migration across rat brain endothelial cell layer (Transwell, 51Cr-labelled cells); assay type: cell-based, Lewis rats; details: test substance 10 mmolar in upper well; 6 hours; in comparison with the negative control (glucose 6-phosphate); triplicate
Excerpt: Vascular endothelial cells were isolated from rat brain capillaries taken from 6 to 8 week old Lewis rats according to the method of Risau et al. (Risau, W., Engelhardt, B., and Wekerle, H., (1990). Journal of Cell Biology, vol 110, p 1757-1766, which is incorporated herein by reference). Colonies of endothelial cells were purified from astroglial cells and pericytes by a Thy1.1-mediated complement lysis also after the method of Risau et al. (vide supra). The endothelial colonies, according to methods known in the art, were grown in Dulbecco's minimum essential medium (DMEM) high glucose supplemented, with 20% fetal calf serum (FCS), glutamine, pyruvate, nonessential amino acids, 4-(2-hydroxyethyl)-1-piperazine ethane sulfonic acid buffer (HEPES), kanamycin, amphotericin, heparin (all from Gibco) and 150 micrograms/ml endothelial growth supplement (Collaborative Biomedical Products). Upon reaching confluence, the endothelial cultures were washed with 0.2% EDTA in phosphate buffered saline (PBS), trypsinized (Trypsin-EDTA, 0.1% final concentration, Gibco), washed and again incubated with anti-Thy1.1 antibody for 40 minutes, washed and incubated with complement sufficient to lyse all Thy1.1+ cells (Behringwerke, AG, Marburg, Germany) at room temperature, washed and plated on matrigel-coated 6.5 mm Transwells, […] (Corning Costar Corporation, Cambridge, Mass.). The endothelial cell characteristics and confluence of the monolayer were checked by measuring the electrical resistance (World Precision Instruments, New Haven, U.S.A., model EVOM-G) and by staining with FITC-labeled phalloidin (Sigma). In order to study the effect of the agents of the present invention on T lymphocyte migration, myelin basic protein (MBP)-specific T lymphocyte cell lines were generated according to the method of Ben-Nun et al. (Ben-Nun, A., Wekerle, H. and Cohen, I. R., 1981). The rapid isolation of clonable antigen-specific T lymphocyte lines capable of mediating autoimmune encephalomyelitis. European Journal of Immunology. 1981, 11(3), 195-199; incorporated herein by reference) from the lymph nodes of Lewis rats that had been immunised with MBP in Freund's complete adjuvant. These cells were used for migration studies during the first 4 days of their propagation in IL-2 containing medium, following antigen (MBP) restimulation in the presence of antigen-presenting cells from irradiated spleen cells or thymocytes taken from normal Lewis rats. The antigen-activated T lymphocytes were radio-labelled with sodium chromate (^51Cr, 37 MBq/ml, Amersham, UK) for 30 minutes at 37° C. with occasional agitation, they were then washed three times with the DMEM culture medium and placed into the upper chamber of the Transwells at 5×10^5 cells in 100 microliters of migration medium. Test and control substance were included in the upper wells at final concentrations of 0.1, 1 and 10 mM. Cell migration was monitored by light microscopy in order to gauge progress of the experiment. […] The combined material was transferred into scintillation vials and the radioactivity of each tube determined by counting for 1 minute in a Packard Auto-Gamma 5650 (IL, USA) gamma counter. Each test and the control substance (glucose 6-phosphate) and no treatment were assessed in triplicate. […]

[2] = test system: lymphocyte migration into the spleen; assay: Inhibition of lymphocyte migration into lymphoid tissue (spleen); assay type: in vivo, Balb/C mice; details: intravenous dose of 5 mg of test compound together with labelled lymphocytes; spleens removed 1.5 hours after injection
Excerpt: In the present example, spleens from specific pathogen free 6-8 week old female Balb/C mice [19-21 g] were used to prepare a single cell suspension in the usual manner in mixed lymphocyte culture medium (DMEM plus glucose, folic acid, L-asparagine, sodium bicarbonate, L-glutamine, sodium pyruvate, HEPES, 2-mercaptoethanol, penicillin, streptomycin, neomycin, and 2% fetal calf serum) by pushing through a stainless steel screen. Following cell collection the red blood cells were lysed in the usual manner by treating with a solution of ammonium chloride, EDTA and sodium hydrogen carbonate (pH 7.3) and the preparation strained (Falcon 2350 cell strainer). All cell preparative steps were performed on ice.
In order to deplete the preparation of B lymphocytes, the cells were suspended in purified rat anti-mouse CD45/B220 antibody (RA3-6B2 clone; PharMingen, USA) at a concentration of 4×10^7 cells per ml and incubated on ice for 20 minutes. An equal volume of mixed lymphocyte culture medium (as above) was then added and the cells centrifuged (200× g) and resuspended at a concentration of 1×10^7 cells per ml in BioMag goat ant-rat IgG (H&L) linked to magnetic beads (Bio Mag; Perseptive Diagnostics, Polysciences Inc, USA). Following a 20 minute incubation on ice, with agitation every 5 minutes, the goat anti-rat IgG/antibody complex was removed using magnetic separation (Dynal MPC-6, Dynal, USA). The magnetic separation procedure was repeated 4 times giving a cell population containing approximately 80-90% T lymphocytes (determined by FACS analysis).
The cells were then washed in Hanks media, resuspended in 5 ml of Hanks, and radio-labelled for 30 minutes at 37° C. with sodium chromate solution (^51Cr, 34 MBq/ml, Amersham, UK). The labelled cells were washed in PBS centrifuged (200×g) and a portion were resuspended at a concentration of 3×10^7 cells/ml in either PBS (negative control), or PBS containing the test compound (25 mg/ml), and stored on ice. Balb/C mice in the negative control and treatment groups received a volume of 0.2 ml of the labelled cell preparation by a lateral tail vein injection. Negative control mice received 0.2 ml of PBS together with 6×10^6 51chromium-labelled lymphocytes, and mice from the treated groups received an intravenous dose of 5 mg of the test compound together with 6 million ^51chromium-labelled lymphocytes. […]
Spleens from the recipient mice were removed 1.5 hours after injection and the cell-associated radioactivity (CPM) determined using a gamma counter (Packard Auto-Gamma 5650. IL, USA). Results (inhibition of lymphocyte migration into the spleen) were expressed as a percentage reduction in the CPM of the spleens from treated animals compared with negative controls.

[3] = test system: passively transferred adjuvant arthritis; assay: Passively transferred adjuvant induced arthritis; assay type: in vivo, DA rats; details: 37 mg/kg/day, end of the two week treatment period, FIG. 2
Experimental: Male DA rats 8 to 10 week old were immunised with three 100 microliter injections of Complete Freund's Adjuvant (CFA) intradermally at the base of the tail. The CFA was prepared by mixing 8 mg/ml of Mycobacterium butyricum (Difco Laboratories, USA) that had been ground to a fine powder using a mortar and pestle, in 85% light mineral oil (Sigma, USA) and 15% mannide monooleate (Sigma) and emulsifying this suspension, one part in one part saline. Thus, the final emulsion contained 4 mg/ml of M. butyricum.
Ten days after immunisation the rats were euthanased and the spleens removed aseptically. A single cell suspension was prepared in the usual manner in mixed lymphocyte culture medium (MLC) (Dulbecco's Modified Eagle's Medium (DMEM) plus glucose, folic acid, L-asparagine, sodium pyruvate, HEPES, 2-mercapto ethanol, penicillin, streptomycin, neomycin and 10% fetal calf serum) by pushing the spleens through a stainless steel sieve. The cells were placed in culture in MLC medium with 2 micrograms/ml concanavalin A added such that the lymphocyte concentration was 2 million cells per milliliter. These cells were cultured aseptically at 37° C. in an atmosphere containing 5% carbon dioxide for 72 hours.
Groups of 4 or 5 DA rats, 6 to 8 weeks of age were anesthetised with diethyl ether and implanted subcutaneously on the flank with Alzet 2002 (2 week delivery) or 2001 (1 week delivery) mini-osmotic pumps (Alza Corp., Palo Alto Calif., USA). One treatment group received phosphoric acid mono-(6-propyl-3,4,5-trihydroxy-tetrahydro-pyran-2-ylmethyl) ester in the one week delivery Alzet 2001 mini-osmotic pumps. The drug was delivered at a dose of 25 mg/kg/day. The control group for this experiment received identical mini-osmotic pumps containing normal saline. In a second experiment another group of DA rats received ethyl (3,4,5-trihydroxy-6-phosphonooxymethyl-tetrahydro-pyran-2-yl)-acetic acid ester in the two week delivery Alzet 2002 mini-osmotic pumps. This drug was delivered at a dose of 37 mg/kg/day. Control animals for this group received saline delivered in identical mini-osmotic pumps. The pumps in each case were implanted subcutaneously on the flank of each animal. […]
After 5 to 8 days, a characteristic thickening and cutaneous hyperemia of the distal joints of the hind legs became clinically apparent in the saline control animals. Disease severity was evaluated and graded in each group by taking daily measurements of the mediolateral widths of both ankle joints. The data were expressed as the mean of the change (compared with width prior to cell injection) in mediolateral ankle width expressed in millimeters (±standard error of the mean).

| Compound | % inhibition ± SEM [1] | Percent Inhibition (relative to negative controls) of lymphocyte migration into spleens [2] | further results |
| --- | --- | --- | --- |
| O=C(O)CC1OC(COP(=O)(O)O)C(O)C(O)C1O (stereo not drawn) [(3,4,5-trihydroxy-6-phosphonooxymethyl-tetrahydro-pyran-2-yl)-acetic acid] | 32 ± 2% |  |  |
| N#CC1OC(COP(=O)([O-])[O-])C(O)C(O)C1O.[Na+].[Na+] (stereo not drawn) [6-cyano-3,4,5-trihydroxy-tetrahydro-pyran-2-ylmethyl phosphoric acid ester disodium salt] |  | 45.0% |  |
| CCOC(=O)CC1OC(COP(=O)(O)O)C(O)C(O)C1O (stereo not drawn) [Ethyl (3,4,5-trihydroxy-6-phosphonooxymethyl-tetrahydro-pyran-2-yl)-acetic acid ester] | 70 ± 4% |  | swelling in the affected joints of treated animals ([3]; two week Alzet 2002 pump subcutaneously, controls severe swelling): little swelling; disease status of the treated versus the control animals ([3]; two week Alzet 2002 pump): highly statistically significant difference |
| CCCCCOC(=O)CC1OC(COP(=O)(O)O)C(O)C(O)C1O (stereo not drawn) [Pentyl (3,4,5-trihydroxy-6-phosphonooxymethyl-tetrahydro-pyran-2-yl)-acetic acid ester] | 80 ± 4% |  |  |
| CCOC(=O)CC1OC(COP(=O)([O-])O)C(O)C(O)C1O.[Na+] (stereo not drawn) [Ethyl (3,4,5-trihydroxy-6-phosphonooxymethyl-tetrahydro-pyran-2-yl)-acetic acid ester sodium salt] |  | 32.4% |  |
| O=P([O-])(O)OCC1OCC(O)C(O)C1O.[Na+] (stereo not drawn) [mono-(3,4,5-trihydroxy-tetrahydro-pyran-2-ylmethyl)phosphoric acid ester mono sodium salt] |  | 68.0% |  |
| O=C[C@H](O)[C@@H](O)[C@H](O)[C@H](O)COP(=O)(O)O [glucose 6-phosphate, reference compound] | 0 ± 5% |  |  |
